Columns and labels:
TEAD2 = biological target: T1, TEAD2 (Homo sapiens, UniProt Q15562); test: HiBiT degradation assay, HEK293T HiBiT-TEAD2; format: cell-based; conditions: 6 h
T1 construct: endogenous in cells; host or cells: HEK293T HiBiT knock-in
Method: (§1) HiBiT cells were inoculated into 96‐well flat‐bottomed tissue culture plates at a density of 50 000 cells per well, followed by adding degraders into the wells using the I‐DOT dispenser. After 6 h of incubation, the cells were lysed and assayed for degradation using the Nano‐Glo HiBiT Lysis Assay System (Promega, #N3030). Luminescence signals were read using an Envision plate reader (Revvity) and the data were analyzed using GraphPad Prism 9.5 software.
(§2) The ribonucleoprotein (RNP) complex was prepared by mixing 2 µg of NLS‐Cas9‐EGFP nuclease (Novoprotein, #E379‐01A), 50 pmol of sgRNA, 10 µL of electrotransfer solution, and 50 pmol of designed donor DNA, then incubated for 10 min at room temperature. One million HEK293T cells were resuspended in 10 µL of electrotransfection solution and mixed with 10 µL of the RNP complex. Electroporation was performed using a Celetrix SP100 electroporator at 480 V. After electroporation, the cells were transferred to antibiotic‐free DMEM complete medium for overnight culture. The following day, EGFP‐positive cells were sorted using a Sony MA 900 cell sorter, plated in a 96‐well cell culture plate (Servicebio, #CCP‐96H), and cultured for 4 weeks. After this period, positive clones were screened using the Nano‐Glo HiBiT Lytic Detection system (Promega, #N3030).

TEAD3 = biological target: T2, TEAD3 (Homo sapiens, UniProt Q99594); test: HiBiT degradation assay, HEK293T HiBiT-TEAD3; format: cell-based; conditions: 6 h
T2 construct: endogenous in cells; host or cells: HEK293T HiBiT knock-in
Method: as §1, §2

TEAD1 = biological target: T3, TEAD1 (Homo sapiens, UniProt P28347+Q96SW2); test: Immunoblot of TEAD1 degradation in TEAD1-mNeonGreen fusion NCI-H1299 cells; format: cell-based
T3 construct: endogenous in cells; host or cells: NCI-H1299 (TEAD1-mNeonGreen knock-in)
Method: Immunoblotting was carried out as previously described.^[ [29] ^] Cells were seeded in 6‐well plates (Yeasen, #84011ES50) at a density of 1 million cells per well. The following day, cells were treated with compounds at the required concentrations, with the DMSO concentration kept below 0.4‰ to prevent toxic effects on the cells. The collected cell pellets were washed three times with PBS (Meilunbio, #MA0015) and resuspended in 120 µL of RIPA lysis buffer (Meilunbio, #MA0151) containing 1% protease inhibitor (Meilunbio, #MB2678‐2). The cells were then sonicated on ice and centrifuged at 12 000 rpm for 15 min at 4 °C to remove cellular debris. Protein concentrations were determined using the BCA Protein Quantification Kit (Meilunbio, #MA0082‐1). The protein samples were normalized, boiled at 99 °C for 10 min, and then subjected to electrophoresis on a 10% SDS‐PAGE gel. The separated protein bands were transferred to nitrocellulose membranes, blocked with TBST containing 5% BSA, and incubated with the indicated primary antibodies. Finally, the blots were imaged using an Amersham Typhoon NIR imager.

[1] = Pharmacokinetic evaluation in ICR male mice; format: in vivo; conditions: mouse, plasma
[2] = 7-day toxicological study in MSTO-211H tumor-bearing mice; format: in vivo; conditions: 10 or 30 mg/kg i.p. daily, 7 days
Method: A toxicological evaluation was conducted using an MSTO‐211H xenograft mouse model. All animal studies were carried out in accordance with protocols approved by the Institutional Animal Care and Use Committees of Tongji University and the Chinese Academy of Sciences, and in compliance with national, institutional and local regulations. These experiments were conducted in specific‐pathogen‐free (SPF) and Helicobacter‐free facilities at both institutions. After 7 consecutive days of drug administration (10 mg kg^−1 or 30 mg kg^−1, i.p., q.d.), whole blood and major organs—including the heart, liver, spleen, lungs, and kidneys—were collected for analysis. Blood samples were anticoagulated with EDTA (1.5 mg mL^−1), gently mixed, and subjected to standard hematological assessment. Tissue samples were processed for both paraffin‐embedded and frozen section analysis. Paraffin embedding involved fixation, graded dehydration, clearing, embedding, sectioning at 4 µm, and dewaxing to water. Frozen sections were prepared by embedding tissues in OCT compound, sectioning at −20 °C with a thickness of 8 µm, followed by acetone fixation and rinsing with PBS. […] Microscopic examinations and image acquisition were carried out, and quantitative analyses were performed using specialized image analysis software. […]

A172 cells = test: RNA-seq transcriptomics in A172 cells; format: cell-based; conditions: 30 nM, 24 h
Method: Following treatment, cells were harvested, washed three times with pre‐chilled PBS, and stored at −80 °C. Total RNA was extracted using TRIzol reagent according to the manufacturer's instructions. mRNA was enriched using oligo(dT) magnetic beads, followed by fragmentation in First Strand Synthesis Reaction Buffer (5×) with divalent cations under elevated temperature.
RNA‐seq libraries were constructed using the ABclonal Fast RNAseq Lib Prep Kit V2 (#RK20306). […] Base calling was performed through real‐time fluorescence capture of polymerase‐driven extension reactions using fluorescently labeled dNTPs and adapter‐anchored primers. Gene‐level read counts were quantified using featureCounts (v2.0.6) and normalized to FPKM values by incorporating gene length. Differential expression analysis was conducted using the DESeq2 package (v1.42.0) for samples with biological replicates, based on the negative binomial distribution. P‐values were adjusted using the Benjamini–Hochberg method, with significance thresholds set at adjusted p ≤ 0.05 and |log2(fold change)| ≥ 1. For samples without replicates, edgeR (v4.0.16) was used, with scaling normalization applied to correct for sequencing depth differences. Functional enrichment analysis, including Gene Ontology (GO) and KEGG pathway analysis, was performed using clusterProfiler (v4.8.1), with correction for gene length bias. A significance threshold of adjusted p < 0.05 was applied. In addition, Gene Set Enrichment Analysis (GSEA) was performed to assess coordinated expression changes in predefined gene sets (GO and KEGG), with genes ranked by the magnitude of differential expression. All transcriptomic experiments were performed by Novogene Co., Ltd.

T1 sequence (Q15562 whole entry): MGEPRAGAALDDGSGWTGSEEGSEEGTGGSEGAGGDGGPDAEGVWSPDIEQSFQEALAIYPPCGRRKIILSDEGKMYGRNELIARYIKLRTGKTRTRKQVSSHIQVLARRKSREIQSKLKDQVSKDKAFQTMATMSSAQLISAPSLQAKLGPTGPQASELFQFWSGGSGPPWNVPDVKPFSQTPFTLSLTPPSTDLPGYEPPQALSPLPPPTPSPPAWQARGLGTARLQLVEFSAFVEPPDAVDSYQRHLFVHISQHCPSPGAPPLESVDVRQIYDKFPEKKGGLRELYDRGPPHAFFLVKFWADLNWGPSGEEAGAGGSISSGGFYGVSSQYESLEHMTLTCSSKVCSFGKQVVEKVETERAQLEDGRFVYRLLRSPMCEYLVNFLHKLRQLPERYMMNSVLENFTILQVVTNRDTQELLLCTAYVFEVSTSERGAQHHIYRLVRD
T2 sequence (Q99594 whole entry): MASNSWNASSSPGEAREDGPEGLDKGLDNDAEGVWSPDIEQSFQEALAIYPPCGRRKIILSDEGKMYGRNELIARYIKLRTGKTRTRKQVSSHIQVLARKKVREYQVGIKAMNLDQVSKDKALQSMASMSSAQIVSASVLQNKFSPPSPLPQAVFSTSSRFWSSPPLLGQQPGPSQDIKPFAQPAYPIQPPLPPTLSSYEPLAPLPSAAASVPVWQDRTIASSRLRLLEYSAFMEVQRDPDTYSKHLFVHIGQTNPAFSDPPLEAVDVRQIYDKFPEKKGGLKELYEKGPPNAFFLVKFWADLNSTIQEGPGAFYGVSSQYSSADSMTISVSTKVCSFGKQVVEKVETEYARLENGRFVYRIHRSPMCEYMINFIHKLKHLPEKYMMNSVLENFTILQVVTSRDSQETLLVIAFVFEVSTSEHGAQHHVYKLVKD
T3 sequence (P28347 whole entry, the tested form may be a part): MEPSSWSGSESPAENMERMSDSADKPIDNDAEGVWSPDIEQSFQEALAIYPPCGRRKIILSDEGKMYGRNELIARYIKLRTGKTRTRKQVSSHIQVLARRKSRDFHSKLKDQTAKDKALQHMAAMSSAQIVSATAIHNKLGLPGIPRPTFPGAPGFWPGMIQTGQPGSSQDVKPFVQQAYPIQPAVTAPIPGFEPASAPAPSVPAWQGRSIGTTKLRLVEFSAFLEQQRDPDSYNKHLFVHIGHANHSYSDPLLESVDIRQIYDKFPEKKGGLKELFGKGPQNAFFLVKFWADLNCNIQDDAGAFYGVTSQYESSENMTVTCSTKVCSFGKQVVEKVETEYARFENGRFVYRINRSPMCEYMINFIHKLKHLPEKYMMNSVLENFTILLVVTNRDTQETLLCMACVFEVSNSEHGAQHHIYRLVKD
T3 sequence (Q96SW2 whole entry, the tested form may be a part): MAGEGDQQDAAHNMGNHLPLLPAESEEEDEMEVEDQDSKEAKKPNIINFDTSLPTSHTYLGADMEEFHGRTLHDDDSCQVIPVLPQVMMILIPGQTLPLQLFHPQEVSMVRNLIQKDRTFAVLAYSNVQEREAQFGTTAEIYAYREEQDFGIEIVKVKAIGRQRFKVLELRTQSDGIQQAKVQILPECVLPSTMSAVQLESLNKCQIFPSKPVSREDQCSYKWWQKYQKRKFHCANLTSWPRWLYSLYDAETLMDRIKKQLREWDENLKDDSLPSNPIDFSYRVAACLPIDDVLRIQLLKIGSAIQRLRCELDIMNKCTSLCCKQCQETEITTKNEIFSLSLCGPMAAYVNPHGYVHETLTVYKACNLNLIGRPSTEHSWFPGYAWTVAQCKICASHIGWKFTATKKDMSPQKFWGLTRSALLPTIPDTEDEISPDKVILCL
T3 sequence (Q16531 2-1140 partner limits assumed): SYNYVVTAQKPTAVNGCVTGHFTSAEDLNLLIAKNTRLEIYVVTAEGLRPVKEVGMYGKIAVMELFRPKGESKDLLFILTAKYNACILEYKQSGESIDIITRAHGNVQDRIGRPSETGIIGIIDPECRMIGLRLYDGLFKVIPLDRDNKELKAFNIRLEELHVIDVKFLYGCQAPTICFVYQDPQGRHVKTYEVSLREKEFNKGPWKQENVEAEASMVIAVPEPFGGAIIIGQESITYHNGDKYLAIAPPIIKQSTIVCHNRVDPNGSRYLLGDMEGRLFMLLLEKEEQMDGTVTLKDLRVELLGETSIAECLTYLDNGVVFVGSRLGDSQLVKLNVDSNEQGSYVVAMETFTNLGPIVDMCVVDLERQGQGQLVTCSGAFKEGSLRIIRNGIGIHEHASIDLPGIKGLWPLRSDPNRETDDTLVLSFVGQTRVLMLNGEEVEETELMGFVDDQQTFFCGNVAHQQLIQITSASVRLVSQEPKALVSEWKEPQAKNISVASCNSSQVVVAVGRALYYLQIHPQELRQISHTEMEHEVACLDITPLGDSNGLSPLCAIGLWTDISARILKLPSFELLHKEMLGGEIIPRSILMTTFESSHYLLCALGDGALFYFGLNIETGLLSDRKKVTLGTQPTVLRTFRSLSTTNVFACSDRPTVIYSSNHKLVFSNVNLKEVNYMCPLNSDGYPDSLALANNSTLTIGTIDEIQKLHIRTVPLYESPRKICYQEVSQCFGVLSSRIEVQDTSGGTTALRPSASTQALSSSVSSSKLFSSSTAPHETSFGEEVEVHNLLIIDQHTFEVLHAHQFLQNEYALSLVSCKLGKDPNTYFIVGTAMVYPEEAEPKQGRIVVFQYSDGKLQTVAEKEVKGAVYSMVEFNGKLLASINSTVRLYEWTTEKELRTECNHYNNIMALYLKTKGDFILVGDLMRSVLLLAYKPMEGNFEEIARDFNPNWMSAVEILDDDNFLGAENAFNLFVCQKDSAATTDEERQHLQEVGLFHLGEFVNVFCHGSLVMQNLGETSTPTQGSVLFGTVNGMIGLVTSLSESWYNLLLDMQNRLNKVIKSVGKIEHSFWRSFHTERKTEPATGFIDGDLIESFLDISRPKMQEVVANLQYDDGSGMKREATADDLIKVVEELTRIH

CNC(=O)c1cc2c(c(F)c1-c1c(Cl)c(F)cc3c1C[C@@](CN[C@H]1CC[C@H](C(=O)N4CCC(CC5CCN(C(=O)COc6ccc(N7CCC(=O)NC7=O)c(C)c6)CC5)CC4)CC1)(c1ccccc1)O3)[C@@H](O)[C@@H](C)C2 [KG-FP-003]
DC50 (TEAD2): 0.068 ± 0.015 µM | TEAD2 Dmax (TEAD2): over 80% | Dmax (TEAD2; HEK-293T): 84 ± 5% | DC50 (TEAD3): 0.012 ± 0.005 µM | TEAD3 Dmax (TEAD3): ≈ 90% | Dmax (TEAD3; HEK-293T): 87 ± 9% | Target degradation by immunoblot (TEAD1; 10 nM, 6 h, TEAD1-mNeonGreen NCI-H1299 cells): significant target degradation | Time to near-complete depletion of TEAD1 (TEAD1; 100 nM, TEAD1-mNeonGreen fusion NCI-H1299 cells): ≤ 2 h | AUC(0-inf) ([1]; IP 5 mg/kg): 2610 ng·h/mL | AUC(0-t) ([1]; IP 5 mg/kg): 2560 ng·h/mL | Cmax ([1]; IP 5 mg/kg): 2010 ng/mL | MRT inf ([1]; IP 5 mg/kg): 3.13 h | Tmax ([1]; IP 5 mg/kg): 0.42 h | half-life ([1]; IP 5 mg/kg): 5.42 h | bioavailability ([1]; IP 5 mg/kg, read-out: F% (bioavailability)): 99% | AUC(0-inf) ([1]; IV 2 mg/kg): 1060 ng·h/mL | AUC(0-t) ([1]; IV 2 mg/kg): 1040 ng·h/mL | Cmax ([1]; IV 2 mg/kg): 4430 ng/mL | MRT inf ([1]; IV 2 mg/kg): 1.4 h | Tmax ([1]; IV 2 mg/kg): 0 h | half-life ([1]; IV 2 mg/kg): 3.57 h | Hematological analyses [2]: no significant deviations from baseline | Histopathological examination of heart, liver, spleen, lungs, kidneys [2]: no structural abnormalities or pathological lesions | Share of the compound's regulated genes in the 56-gene overlap (A172 cells): 4% | DEG gene counts (Down) (A172 cells; VS Control (DMSO)): 611 | DEG gene counts (Up) (A172 cells; VS Control (DMSO)): 662

Source: paper PMC12752627, “Discovery of a Potent and Selective TEAD Degrader with Durable Degradation Activity” (Advanced Science, 2025)
